According to the NIST ThermoML archive (doi:10.1016/j.jct.2016.01.019):
Numbers after ± are expanded uncertainties.

Test: refractive index (other wavelength) (dimensionless); xn = mol fraction of the nth substance listed
Conditions: 94.64 kPa, Liquid, Standard Abbe refractometry

OCCCO [propan-1,3-diol] + CC(O)CO
refractive index
Conditions | x2 = 0 | x2 = 0.0985 | x2 = 0.2023 | x2 = 0.3015 | x2 = 0.3961 | x2 = 0.5009 | x2 = 0.5961 | x2 = 0.6965 | x2 = 0.7974 | x2 = 0.8985
308.15 K, Wavelength=404.7 nm | 1.44755 ± 0.002 | 1.44681 ± 0.002 | 1.44642 ± 0.002 | 1.44583 ± 0.002 | 1.44528 ± 0.002 | 1.44466 ± 0.002 | 1.44403 ± 0.002 | 1.44294 ± 0.002 | 1.44202 ± 0.002 | 1.44072 ± 0.002
308.15 K, Wavelength=435.8 nm | 1.44419 ± 0.002 | 1.44355 ± 0.002 | 1.44296 ± 0.002 | 1.44258 ± 0.002 | 1.44194 ± 0.002 | 1.44132 ± 0.002 | 1.4406 ± 0.002 | 1.43962 ± 0.002 | 1.43868 ± 0.002 | 1.43738 ± 0.002
308.15 K, Wavelength=486.1 nm | 1.44027 ± 0.002 | 1.43972 ± 0.002 | 1.43922 ± 0.002 | 1.43857 ± 0.002 | 1.43806 ± 0.002 | 1.43743 ± 0.002 | 1.43673 ± 0.002 | 1.43585 ± 0.002 | 1.43482 ± 0.002 | 1.43353 ± 0.002
308.15 K, Wavelength=546.1 nm | 1.43699 ± 0.002 | 1.43636 ± 0.002 | 1.43579 ± 0.002 | 1.43522 ± 0.002 | 1.4348 ± 0.002 | 1.43417 ± 0.002 | 1.43347 ± 0.002 | 1.43254 ± 0.002 | 1.43163 ± 0.002 | 1.43033 ± 0.002
308.15 K, Wavelength=587.6 nm | 1.43529 ± 0.002 | 1.43471 ± 0.002 | 1.434 ± 0.002 | 1.43353 ± 0.002 | 1.4331 ± 0.002 | 1.43247 ± 0.002 | 1.43187 ± 0.002 | 1.43093 ± 0.002 | 1.42993 ± 0.002 | 1.42865 ± 0.002
308.15 K, Wavelength=632.8 nm | 1.43375 ± 0.002 | 1.43302 ± 0.002 | 1.4324 ± 0.002 | 1.432 ± 0.002 | 1.43158 ± 0.002 | 1.43095 ± 0.002 | 1.43034 ± 0.002 | 1.42938 ± 0.002 | 1.42838 ± 0.002 | 1.42712 ± 0.002
308.15 K, Wavelength=644 nm | 1.4334 ± 0.002 | 1.43286 ± 0.002 | 1.4322 ± 0.002 | 1.43185 ± 0.002 | 1.43123 ± 0.002 | 1.43061 ± 0.002 | 1.43 ± 0.002 | 1.42895 ± 0.002 | 1.42803 ± 0.002 | 1.42677 ± 0.002
308.15 K, Wavelength=706.5 nm | 1.4317 ± 0.002 | 1.43089 ± 0.002 | 1.4305 ± 0.002 | 1.42987 ± 0.002 | 1.42955 ± 0.002 | 1.42893 ± 0.002 | 1.42834 ± 0.002 | 1.42729 ± 0.002 | 1.42637 ± 0.002 | 1.42508 ± 0.002
313.15 K, Wavelength=404.7 nm | 1.44615 ± 0.002 | 1.44547 ± 0.002 | 1.44484 ± 0.002 | 1.44421 ± 0.002 | 1.44353 ± 0.002 | 1.4429 ± 0.002 | 1.44213 ± 0.002 | 1.4412 ± 0.002 | 1.44027 ± 0.002 | 1.4391 ± 0.002
313.15 K, Wavelength=435.8 nm | 1.4428 ± 0.002 | 1.44212 ± 0.002 | 1.44145 ± 0.002 | 1.44077 ± 0.002 | 1.44021 ± 0.002 | 1.43956 ± 0.002 | 1.43886 ± 0.002 | 1.43787 ± 0.002 | 1.43694 ± 0.002 | 1.43576 ± 0.002
313.15 K, Wavelength=486.1 nm | 1.43888 ± 0.002 | 1.43822 ± 0.002 | 1.43758 ± 0.002 | 1.43688 ± 0.002 | 1.43634 ± 0.002 | 1.43565 ± 0.002 | 1.435 ± 0.002 | 1.43401 ± 0.002 | 1.43313 ± 0.002 | 1.43193 ± 0.002
313.15 K, Wavelength=546.1 nm | 1.43562 ± 0.002 | 1.43502 ± 0.002 | 1.4344 ± 0.002 | 1.43385 ± 0.002 | 1.43312 ± 0.002 | 1.43257 ± 0.002 | 1.43175 ± 0.002 | 1.43082 ± 0.002 | 1.42992 ± 0.002 | 1.42873 ± 0.002
313.15 K, Wavelength=587.6 nm | 1.43392 ± 0.002 | 1.43331 ± 0.002 | 1.43262 ± 0.002 | 1.43194 ± 0.002 | 1.43132 ± 0.002 | 1.43077 ± 0.002 | 1.43006 ± 0.002 | 1.42912 ± 0.002 | 1.42824 ± 0.002 | 1.42705 ± 0.002
313.15 K, Wavelength=632.8 nm | 1.43238 ± 0.002 | 1.43157 ± 0.002 | 1.43095 ± 0.002 | 1.43031 ± 0.002 | 1.42988 ± 0.002 | 1.42924 ± 0.002 | 1.42852 ± 0.002 | 1.42758 ± 0.002 | 1.42673 ± 0.002 | 1.42553 ± 0.002
313.15 K, Wavelength=644 nm | 1.43203 ± 0.002 | 1.43122 ± 0.002 | 1.43065 ± 0.002 | 1.42997 ± 0.002 | 1.42954 ± 0.002 | 1.429 ± 0.002 | 1.42818 ± 0.002 | 1.42724 ± 0.002 | 1.42638 ± 0.002 | 1.42518 ± 0.002
313.15 K, Wavelength=706.5 nm | 1.43035 ± 0.002 | 1.42953 ± 0.002 | 1.42898 ± 0.002 | 1.4284 ± 0.002 | 1.42788 ± 0.002 | 1.42723 ± 0.002 | 1.42653 ± 0.002 | 1.42558 ± 0.002 | 1.4247 ± 0.002 | 1.42352 ± 0.002
318.15 K, Wavelength=404.7 nm | 1.44474 ± 0.002 | 1.44416 ± 0.002 | 1.44346 ± 0.002 | 1.44271 ± 0.002 | 1.4421 ± 0.002 | 1.44134 ± 0.002 | 1.44059 ± 0.002 | 1.43957 ± 0.002 | 1.43859 ± 0.002 | 1.43751 ± 0.002
318.15 K, Wavelength=435.8 nm | 1.44141 ± 0.002 | 1.44072 ± 0.002 | 1.44015 ± 0.002 | 1.43938 ± 0.002 | 1.43872 ± 0.002 | 1.438 ± 0.002 | 1.43725 ± 0.002 | 1.43624 ± 0.002 | 1.43526 ± 0.002 | 1.43417 ± 0.002
318.15 K, Wavelength=486.1 nm | 1.43754 ± 0.002 | 1.43671 ± 0.002 | 1.43608 ± 0.002 | 1.43535 ± 0.002 | 1.43468 ± 0.002 | 1.43396 ± 0.002 | 1.43322 ± 0.002 | 1.43243 ± 0.002 | 1.43145 ± 0.002 | 1.43035 ± 0.002
318.15 K, Wavelength=546.1 nm | 1.43429 ± 0.002 | 1.43372 ± 0.002 | 1.43312 ± 0.002 | 1.43243 ± 0.002 | 1.43177 ± 0.002 | 1.43107 ± 0.002 | 1.43022 ± 0.002 | 1.42925 ± 0.002 | 1.42827 ± 0.002 | 1.42718 ± 0.002
318.15 K, Wavelength=587.6 nm | 1.43261 ± 0.002 | 1.43191 ± 0.002 | 1.43127 ± 0.002 | 1.43053 ± 0.002 | 1.42988 ± 0.002 | 1.42918 ± 0.002 | 1.42854 ± 0.002 | 1.42758 ± 0.002 | 1.42659 ± 0.002 | 1.42551 ± 0.002
318.15 K, Wavelength=632.8 nm | 1.43109 ± 0.002 | 1.43037 ± 0.002 | 1.42963 ± 0.002 | 1.42894 ± 0.002 | 1.42826 ± 0.002 | 1.42752 ± 0.002 | 1.42682 ± 0.002 | 1.42606 ± 0.002 | 1.42507 ± 0.002 | 1.424 ± 0.002
318.15 K, Wavelength=644 nm | 1.43075 ± 0.002 | 1.43013 ± 0.002 | 1.4294 ± 0.002 | 1.42884 ± 0.002 | 1.42811 ± 0.002 | 1.42748 ± 0.002 | 1.42668 ± 0.002 | 1.42572 ± 0.002 | 1.42473 ± 0.002 | 1.42365 ± 0.002
318.15 K, Wavelength=706.5 nm | 1.42908 ± 0.002 | 1.42827 ± 0.002 | 1.4276 ± 0.002 | 1.42698 ± 0.002 | 1.42645 ± 0.002 | 1.42575 ± 0.002 | 1.425 ± 0.002 | 1.42406 ± 0.002 | 1.42308 ± 0.002 | 1.42199 ± 0.002
